# From PMC6136660 (Steroids, 2018)
# Read-outs that look alike come from different tables or passages of the source.
# How the values were obtained:
# [1] = biological target: T1, mineralocorticoid receptor (Homo sapiens, UniProt P08235); assay: In vitro reporter assays for steroid hormone receptors, agonist and antagonist modes; assay type: cell-based; conditions: in vitro reporter assays (unpublished observations)
# T1 sequence (P08235 1-984): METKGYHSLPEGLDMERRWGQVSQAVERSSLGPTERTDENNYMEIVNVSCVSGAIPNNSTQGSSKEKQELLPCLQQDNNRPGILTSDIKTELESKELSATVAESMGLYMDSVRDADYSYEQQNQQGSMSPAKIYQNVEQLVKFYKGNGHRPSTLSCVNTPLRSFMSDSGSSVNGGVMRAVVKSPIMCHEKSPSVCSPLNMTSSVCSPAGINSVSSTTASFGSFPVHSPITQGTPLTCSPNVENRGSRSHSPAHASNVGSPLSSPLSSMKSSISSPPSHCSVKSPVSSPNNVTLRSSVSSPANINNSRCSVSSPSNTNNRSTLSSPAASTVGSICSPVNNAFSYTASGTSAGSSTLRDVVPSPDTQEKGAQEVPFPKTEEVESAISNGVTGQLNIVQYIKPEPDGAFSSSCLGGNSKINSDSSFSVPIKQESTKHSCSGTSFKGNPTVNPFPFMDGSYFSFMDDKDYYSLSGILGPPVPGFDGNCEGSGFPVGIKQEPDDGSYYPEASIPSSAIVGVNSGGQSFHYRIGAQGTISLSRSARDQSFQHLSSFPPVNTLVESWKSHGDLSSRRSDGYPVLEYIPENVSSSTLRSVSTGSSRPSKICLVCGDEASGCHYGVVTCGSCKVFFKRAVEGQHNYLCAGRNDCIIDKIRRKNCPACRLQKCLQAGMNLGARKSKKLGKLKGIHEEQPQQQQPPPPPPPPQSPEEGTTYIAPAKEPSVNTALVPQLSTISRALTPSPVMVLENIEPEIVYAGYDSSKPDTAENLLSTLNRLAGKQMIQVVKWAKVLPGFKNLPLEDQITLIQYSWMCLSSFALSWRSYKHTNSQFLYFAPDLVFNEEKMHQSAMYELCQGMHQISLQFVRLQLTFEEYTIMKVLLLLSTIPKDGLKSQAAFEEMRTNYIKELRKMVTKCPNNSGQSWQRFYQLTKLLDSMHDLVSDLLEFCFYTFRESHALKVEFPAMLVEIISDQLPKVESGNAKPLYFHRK
# From the text: In addition to the dissociation of […] (lost) and transrepression (retained) activities, vamorolone has changed additional sub-activities of traditional glucocorticoids. Cortisol and pharmacological glucocorticoids show high affinity for the mineralocorticoid receptor, similar to its physiological ligand, aldosterone. Glucocorticoids and aldosterone act as agonists for the mineralocorticoid receptor, and high circulating levels of pharmacological glucocorticoids result in salt imbalance and water weight gain (Cushingoid appearance) via the reninangiotensin system. […] Vamorolone can not be metabolized by 11β-Hydroxysteroid dehydrogenase (11BHSD) isoforms, and thus should show greater stability in aldosterone-responsive cells (e.g. not inactivated as cortisol and glucocorticoids are).
# [2] = Phase 1 single ascending dose (SAD) pharmacokinetics, fasted; assay type: in vivo, human; conditions: for Vd/F: read-out: Vz/F; for k el: read-out: λz (converted)
# Protocol: This clinical trial was a randomized, double-blind, placebo controlled single ascending (SAD) and multiple ascending (MAD) study to evaluate the safety, tolerability, and pharmacokinetics of vamorolone in health adult subjects. The study protocol and its amendments were reviewed and approved by an Institutional Review Board. It was conducted in accordance with the principles of the Declaration of Helsinki in place at the time of study conduct and in compliance with the International Council on Harmonisation (ICH) E6 Guideline for Good Clinical Practice.
# In the SAD part of the study, 7 cohorts were to be enrolled. Eight subjects were assigned to each of Cohorts 1 to 5 and 7 and received a single oral dose of vamorolone (planned as 0.1 mg/kg, 0.3 mg/kg, 1.0 mg/kg, 3.0 mg/kg, 8.0 mg/kg, and 20.0 mg/kg, respectively) or placebo under fasted conditions. Six subjects were assigned to Cohort 6 and were administered a single oral dose of 8.0 mg/kg vamorolone within 30 min of beginning a high fat/high calorie meal.
# Subjects in Cohorts 1 through 5 and 7 were randomized to receive vamorolone or placebo in a 3:1 ratio (6 subjects received vamorolone, and 2 subjects received placebo) sequentially. In Cohort 1, 3 sentinel subjects were administered vamorolone or placebo in a 2:1 ratio. Following a review of sentinel safety and tolerability data (including reported adverse events [AEs], clinical laboratory tests, vital signs, and electrocardiograms [ECGs]), the remaining 5 subjects were randomized to receive vamorolone or placebo in a 4:1 ratio and dosed no earlier than 48 h after sentinel dosing. In Cohorts 2 to 5, and 7, subjects were administered vamorolone or placebo in a 3:1 ratio. Once Cohort 5 was completed and safety data had been reviewed, subjects in Cohort 6 were administered a single oral dose of 8.0 mg/kg vamorolone within 30 min of beginning a standard high fat/high calorie meal.
# The initial starting dose for the vamorolone SAD study was chosen based on 10% of the NOAEL in the most sensitive species (mouse) (0.1 mg/kg). Doses were then escalated by 3-fold increments for 6 dose groups (0.1, 0.3, 1.0, 3.0, 9.0, 20.0 mg/kg). Eight adult male volunteers were studied in each dose group (6 drug-treated, 2 placebo).
# [3] = male, human, plasma, single oral 0.1 mg/kg, fasted, geometric mean (%CV)
# [4] = male, human, plasma, single oral 0.3 mg/kg, fasted, geometric mean (%CV)
# [5] = male, human, plasma, single oral 1 mg/kg, fasted, geometric mean (%CV)
# [6] = male, human, plasma, single oral 3 mg/kg, fasted, geometric mean (%CV)
# [7] = male, human, plasma, single oral 8 mg/kg, fasted, geometric mean (%CV)
# [8] = male, human, plasma, single oral 20 mg/kg, fasted, geometric mean (%CV)
smiles,measurement,setting,value
C[C@@H]1C[C@H]2[C@@H]3CCC4=CC(=O)C=C[C@]4(C)C3=CC[C@]2(C)[C@@]1(O)C(=O)CO [vamorolone],activity at the mineralocorticoid receptor,[1],potent antagonist
same,slope of log plot of AUC(inf) vs dose,[2]; SAD 0.1-20 mg/kg,~1.0
same,slope of log plot of Cmax vs dose,[2]; SAD 0.1-20 mg/kg,< 1.0
same,CL/F,"[2]; male, human, plasma, oral, across single 0.1 to 20 mg/kg doses, fasted, read-out: CL/F, range of geometric mean values",29.3 to 38.5 mL/min/kg
same,half-life,"[2]; male, human, plasma, oral, healthy subjects, approximate overall, read-out: half-life (converted)",~3 h
same,AUC(0-inf),[2]; [3],49.5 ng·h/mL
same,AUC(0-t),[2]; [3],41.9 ng·h/mL
same,Cmax,[2]; [3],13.1 ng/mL
same,CL/F,"[2]; male, human, plasma, single oral 0.1 mg/kg, fasted, geometric mean (%CV), read-out: CL/F (converted)",33.7 mL/min/kg
same,Vd/F,[2]; [3],4.98 L/kg
same,half-life,"[2]; male, human, plasma, single oral 0.1 mg/kg, fasted, geometric mean (%CV), read-out: t½ (converted)",1.71 h
same,k el,[2]; [3],0.000113 s⁻¹
same,Tmax,"[2]; male, human, plasma, single oral 0.1 mg/kg, fasted, median, read-out: Tmax",1.5 h
same,AUC(0-inf),[2]; [4],170 ng·h/mL
same,AUC(0-t),[2]; [4],161 ng·h/mL
same,Cmax,[2]; [4],50.8 ng/mL
same,CL/F,"[2]; male, human, plasma, single oral 0.3 mg/kg, fasted, geometric mean (%CV), read-out: CL/F (converted)",29.3 mL/min/kg
same,Vd/F,[2]; [4],4.07 L/kg
same,half-life,"[2]; male, human, plasma, single oral 0.3 mg/kg, fasted, geometric mean (%CV), read-out: t½ (converted)",1.6 h
same,k el,[2]; [4],0.00012 s⁻¹
same,Tmax,"[2]; male, human, plasma, single oral 0.3 mg/kg, fasted, median, read-out: Tmax",1.5 h
same,AUC(0-inf),[2]; [5],500 ng·h/mL
same,AUC(0-t),[2]; [5],486 ng·h/mL
same,Cmax,[2]; [5],122 ng/mL
same,CL/F,"[2]; male, human, plasma, single oral 1 mg/kg, fasted, geometric mean (%CV), read-out: CL/F (converted)",33.3 mL/min/kg
same,Vd/F,[2]; [5],5.22 L/kg
same,half-life,"[2]; male, human, plasma, single oral 1 mg/kg, fasted, geometric mean (%CV), read-out: t½ (converted)",1.81 h
same,k el,[2]; [5],0.000106 s⁻¹
same,Tmax,"[2]; male, human, plasma, single oral 1 mg/kg, fasted, median, read-out: Tmax",1.75 h
same,AUC(0-inf),[2]; [6],1600 ng·h/mL
same,AUC(0-t),[2]; [6],1580 ng·h/mL
same,Cmax,[2]; [6],305 ng/mL
same,CL/F,"[2]; male, human, plasma, single oral 3 mg/kg, fasted, geometric mean (%CV), read-out: CL/F (converted)",31.3 mL/min/kg
same,Vd/F,[2]; [6],6.76 L/kg
same,half-life,"[2]; male, human, plasma, single oral 3 mg/kg, fasted, geometric mean (%CV), read-out: t½ (converted)",2.5 h
same,k el,[2]; [6],7.7e-05 s⁻¹
same,Tmax,"[2]; male, human, plasma, single oral 3 mg/kg, fasted, median, read-out: Tmax",1.75 h
same,AUC(0-inf),[2]; [7],3600 ng·h/mL
same,AUC(0-t),[2]; [7],4000 ng·h/mL
same,Cmax,[2]; [7],718 ng/mL
same,CL/F,"[2]; male, human, plasma, single oral 8 mg/kg, fasted, geometric mean (%CV), read-out: CL/F (converted)",37 mL/min/kg
same,Vd/F,[2]; [7],10.4 L/kg
same,half-life,"[2]; male, human, plasma, single oral 8 mg/kg, fasted, geometric mean (%CV), read-out: t½ (converted)",3.25 h
same,k el,[2]; [7],5.93e-05 s⁻¹
same,Tmax,"[2]; male, human, plasma, single oral 8 mg/kg, fasted, median, read-out: Tmax",1.78 h
same,AUC(0-inf),[2]; [8],8650 ng·h/mL
same,AUC(0-t),[2]; [8],8540 ng·h/mL
same,Cmax,[2]; [8],1650 ng/mL
same,CL/F,"[2]; male, human, plasma, single oral 20 mg/kg, fasted, geometric mean (%CV), read-out: CL/F (converted)",38.5 mL/min/kg
same,Vd/F,[2]; [8],14.2 L/kg
same,half-life,"[2]; male, human, plasma, single oral 20 mg/kg, fasted, geometric mean (%CV), read-out: t½ (converted)",4.26 h
same,k el,[2]; [8],4.52e-05 s⁻¹
same,Tmax,"[2]; male, human, plasma, single oral 20 mg/kg, fasted, median, read-out: Tmax",1.5 h
same,Tmax,"[2]; male, human, serum, oral suspension formulation (4% vamorolone by weight), read-out: time of peak serum concentrations",~3 h
same,CL/F,"[2]; single oral 0.1 mg/kg, fasted, geometric mean (%CV)",168 (20.8) (6) L/h
same,CL/F,"[2]; single oral 0.3 mg/kg, fasted, geometric mean (%CV)",142 (14.4) (6) L/h
same,CL/F,"[2]; single oral 1 mg/kg, fasted, geometric mean (%CV)",165 (12.0) (6) L/h
same,CL/F,"[2]; single oral 3 mg/kg, fasted, geometric mean (%CV)",152 (18.5) (6) L/h
same,CL/F,"[2]; single oral 8 mg/kg, fasted, geometric mean (%CV)",196 (57.6) (4) L/h
same,CL/F,"[2]; single oral 20 mg/kg, fasted, geometric mean (%CV)",180 (29.8) (4) L/h
